{"source": "paper PMC8284473", "about": "“Preliminary Characterization of NP339, a Novel Polyarginine Peptide with Broad Antifungal Activity” (Antimicrobial Agents and Chemotherapy, 2021)", "key": {"C. albicans NCTC 3179": {"system": "C. albicans NCTC 3179", "assay_type": "cell-based, Candida albicans", "conditions": "NCTC 3179, 24 h", "experimental": "MIC values were determined following the CLSI-approved Reference Method for Broth Dilution Antifungal Susceptibility Testing of Yeasts (approved standard M27-A3) ([32]) in RPMI 1640 medium (Sigma, Dorset, United Kingdom) at 35°C. For all filamentous fungi, the CLSI standard M38-A2 ([33]) was followed, in RPMI 1640 medium at 35°C. Cell growth of all fungi was followed by measuring the optical density at 530 nm (OD530) using the Powerwave XS plate reader (Biotek, Swindon, United Kingdom)."}, "C. auris": {"system": "C. auris", "experiment": "Time-kill assay in culture media", "assay_type": "cell-based, Candida auris", "conditions": "C. auris (n = 1), inoculum 1 × 10^6 to 5 × 10^6 cells/ml", "procedure": "(§1) For Candida spp., the cells were grown for at least 18 to 24 h at 30°C, until visible growth was observed. The cells were then centrifuged and resuspended in sterile distilled H2O and diluted to the 0.5 McFarland standard density using 2× RPMI 1640 medium. The tested antifungals were prepared at twice the required concentration. Then, 1 ml of the inoculum was added to 1 ml of the antifungal solution and incubated at 30°C. Every hour over the course of 8 h, 20 μl of the culture was removed and 10-fold serial dilutions were prepared (from 1 × 10^−1 to 1 × 10^−7). Then, 50 μl of each dilution was plated on SAB agar (Sigma) in triplicate. […] The colonies were counted, and the percentage killed was determined based on the reduction in the number of CFU/ml in the treated samples compared with the vehicle-treated, untreated controls."}, "A. fumigatus conidia": {"system": "A. fumigatus conidia", "experiment": "Time-kill assay in culture media", "assay_type": "cell-based, Aspergillus fumigatus", "conditions": "A. fumigatus conidia (n = 2), inoculum 1 × 10^5 cells/ml, antibiotic medium 3", "procedure": "For Candida spp., the cells were grown for at least 18 to 24 h at 30°C, until visible growth was observed. The cells were then centrifuged and resuspended in sterile distilled H2O and diluted to the 0.5 McFarland standard density using 2× RPMI 1640 medium. The tested antifungals were prepared at twice the required concentration. Then, 1 ml of the inoculum was added to 1 ml of the antifungal solution and incubated at 30°C. Every hour over the course of 8 h, 20 μl of the culture was removed and 10-fold serial dilutions were prepared (from 1 × 10^−1 to 1 × 10^−7). Then, 50 μl of each dilution was plated on SAB agar (Sigma) in triplicate. The plates were incubated at 30°C until colonies were observed on the control plates with vehicle-treated fungi. The colonies were counted, and the percentage killed was determined based on the reduction in the number of CFU/ml in the treated samples compared with the vehicle-treated, untreated controls.\nFor A. fumigatus, a subculture was grown on a SAB agar (Sigma) slant for 72 h at 35°C until sporulation. A. fumigatus cells were harvested from the slant into 0.15 M NaCl (Fisher Scientific UK, Ltd.), and conidia were isolated by passing through an EASYStrainer cell sieve (70-μm pore; Greiner Bio-One, Gloucester, United Kingdom) The conidial suspension was diluted to 1 × 10^5 CFU/ml in 2× antibiotic medium 3 (Oxoid). For germling analysis, the conidial suspension was incubated for 8 h at 35°C prior to analysis; for conidial experiments, it was used immediately. The experiment was performed as described for Candida spp."}, "C. albicans SC5314": {"system": "C. albicans SC5314", "assay_type": "cell-based, Candida albicans", "conditions": "30 passages in 0.25× MIC of the same antifungal, MIC at passage 0 normalized to 1, average of three independent replicates", "procedure": "(§2) Cell growth of all fungi was followed by measuring the optical density at 530 nm (OD530) using the Powerwave XS plate reader (Biotek, Swindon, United Kingdom).\n(§3) The fungal inoculum was prepared according to the CLSI standard M27-A3 ([32]). For the analysis, 100 μl of the antifungal stock was added to a 96-well polystyrene plate in triplicate. […] The passaging was repeated 30 times. Every five passages, a full MIC analysis was done, as specified above."}, "C. auris DSMZ1092": {"system": "C. auris DSMZ1092", "assay_type": "cell-based, Candida auris", "conditions": "30 passages in 0.25× MIC of the same antifungal, passage 0 = 1, average of three independent replicates", "procedure": "as §2, §3"}, "C. glabrata AM2007/0125": {"system": "C. glabrata AM2007/0125", "assay_type": "cell-based, Candida glabrata", "conditions": "30 passages in 0.25× MIC of the same antifungal, passage 0 = 1, average of three independent replicates", "procedure": "as §2, §3"}, "[1]": {"system": "C. tropicalis AM2005/0568", "assay_type": "cell-based, Candida tropicalis", "conditions": "30 passages in 0.25× MIC of the same antifungal, passage 0 = 1, average of three independent replicates", "procedure": "as §2, §3"}, "C. albicans": {"system": "C. albicans", "experiment": "Time-kill assay in culture media", "assay_type": "cell-based, Candida albicans", "conditions": "C. albicans (n = 2), inoculum 1 × 10^6 to 5 × 10^6 cells/ml, RPMI 1640, 30°C", "procedure": "as §1, with “The” for “For Candida spp., the cells were grown for at least 18 to 24 h at 30°C, until visible growth was observed. The cells were then centrifuged and resuspended in sterile distilled H2O and diluted to the 0.5 McFarland standard density using 2× RPMI 1640 medium. The”"}, "C. albicans AM2003-0182 [2]": {"system": "C. albicans AM2003-0182", "experiment": "MIC (CLSI) of the agents used for TEM", "assay_type": "cell-based, Candida albicans", "conditions": "standard CLSI methods"}, "C. albicans AM2003-0182 [3]": {"system": "C. albicans AM2003-0182", "experiment": "Transmission electron microscopy of planktonic cells", "assay_type": "cell-based, Candida albicans", "conditions": "1× MIC, 30 min exposure", "procedure": "For the TEM analysis, an overnight culture of C. albicans AM2003-0182 was diluted to a density of 1 × 10^8 cells/ml in 2× RPMI 1640 medium, and the mixture was incubated at 35°C for 1 h. The cells were then washed three times in sterile water and once in 0.01 M sodium phosphate buffer. […] The cells were then fixed in 2.5% (vol/vol) glutaraldehyde and stored at 4°C before analysis. For TEM analysis, the cells were dehydrated in an ethanol and acetone series before being embedded in […] resin, stained with uranyl acetate/lead citrate stains to improve contrast, sectioned to a 90-nm thickness, and mounted onto copper grids for TEM analysis. TEM micrographs were acquired using a JEM-1400 Plus JEOL transmission electron microscope. Microscopy was performed in the Microscopy and Histology Core Facility at the University of Aberdeen (United Kingdom)."}}, "note": "Peptide text beside a SMILES is read from it.", "data": [{"compound": "N=C(N)NCCC[C@H](NC(=O)[C@H](CCCNC(=N)N)NC(=O)[C@H](CCCNC(=N)N)NC(=O)[C@H](CCCNC(=N)N)NC(=O)[C@H](CCCNC(=N)N)NC(=O)[C@H](CCCNC(=N)N)NC(=O)[C@H](CCCNC(=N)N)NC(=O)[C@H](CCCNC(=N)N)NC(=O)[C@@H](N)CCCNC(=N)N)C(=O)O", "values": [{"measurement": "MIC", "setting": "C. albicans NCTC 3179", "value": "2,048 μM"}]}, {"compound": "N=C(N)NCCC[C@H](NC(=O)[C@H](CCCNC(=N)N)NC(=O)[C@H](CCCNC(=N)N)NC(=O)[C@H](CCCNC(=N)N)NC(=O)[C@H](CCCNC(=N)N)NC(=O)[C@H](CCCNC(=N)N)NC(=O)[C@H](CCCNC(=N)N)NC(=O)[C@H](CCCNC(=N)N)NC(=O)[C@H](CCCNC(=N)N)NC(=O)[C@H](CCCNC(=N)N)NC(=O)[C@@H](N)CCCNC(=N)N)C(=O)O", "values": [{"measurement": "MIC", "setting": "C. albicans NCTC 3179", "value": 8, "unit": "µM"}]}, {"compound": "C[C@@H]1[C@H](O)[C@@H](C)/C=C/C=C/C=C/C=C/C=C/C=C/C=C/[C@H](O[C@@H]2O[C@H](C)[C@@H](O)[C@H](N)[C@@H]2O)C[C@@H]2O[C@](O)(C[C@@H](O)C[C@@H](O)[C@H](O)CC[C@@H](O)C[C@@H](O)CC(=O)O[C@H]1C)C[C@H](O)[C@H]2C(=O)O", "note": "[Amphotericin B]", "values": [{"measurement": "Time of kill (time taken to kill 3 logs)", "setting": "C. auris; final concn 32 mg/liter = 16× MIC (amphotericin B)", "value": 4, "unit": "h"}, {"measurement": "Time of kill (time taken to kill 2 logs)", "setting": "A. fumigatus conidia; final concn 2–8 mg/liter = 4–16× MIC", "value": 48, "unit": "h"}, {"measurement": "Fold change in antifungal MIC at passage 30", "setting": "C. albicans SC5314", "value": 4}, {"measurement": "Fold change in antifungal MIC at passage 30", "setting": "C. auris DSMZ1092", "value": 4}, {"measurement": "Fold change in antifungal MIC at passage 30", "setting": "C. glabrata AM2007/0125", "value": 1}, {"measurement": "Fold change in antifungal MIC at passage 30", "setting": "[1]", "value": 4}]}, {"compound": "CC[C@H](C)C[C@H](C)CCCCCCCCC(=O)N[C@H]1C[C@@H](O)[C@@H](NCCN)NC(=O)[C@@H]2[C@@H](O)CCN2C(=O)[C@H]([C@H](O)CCN)NC(=O)[C@H]([C@H](O)[C@@H](O)c2ccc(O)cc2)NC(=O)[C@@H]2C[C@@H](O)CN2C(=O)[C@H]([C@@H](C)O)NC1=O", "note": "[Caspofungin]", "values": [{"measurement": "Time of kill (time taken to kill 3 logs)", "setting": "C. albicans; final concn 1 mg/liter = 4× MIC", "value": 4, "unit": "h"}, {"measurement": "Time of kill (time taken to kill 3 logs)", "setting": "C. auris; final concn 16 mg/liter = 16× MIC", "value": "6–24 h"}, {"measurement": "Time of kill (time taken to kill 2 logs)", "setting": "A. fumigatus conidia; final concn 2–32 mg/liter = 1–16× MIC", "value": 48, "unit": "h"}, {"measurement": "Fold change in antifungal MIC at passage 30", "setting": "C. albicans SC5314", "value": 4}, {"measurement": "Fold change in antifungal MIC at passage 30", "setting": "C. auris DSMZ1092", "value": 1}, {"measurement": "Fold change in antifungal MIC at passage 30", "setting": "C. glabrata AM2007/0125", "value": 1}, {"measurement": "Fold change in antifungal MIC at passage 30", "setting": "[1]", "value": 8}, {"measurement": "MIC (1× MIC, final concentration used for TEM)", "setting": "C. albicans AM2003-0182 [2]", "value": 0.5, "unit": "µg/mL"}, {"measurement": "Cell destruction (lysis) seen by TEM", "setting": "C. albicans AM2003-0182 [3]", "value": "not observed"}]}, {"compound": "OC(Cn1cncn1)(Cn1cncn1)c1ccc(F)cc1F", "note": "[Fluconazole]", "values": [{"measurement": "Time of kill (time taken to kill 3 logs)", "setting": "C. albicans; final concn 32 mg/liter = 32× MIC", "value": 6, "unit": "h"}]}, {"compound": "CC[C@@H]([C@H](C)O)n1ncn(-c2ccc(N3CCN(c4ccc(OC[C@@H]5CO[C@@](Cn6cncn6)(c6ccc(F)cc6F)C5)cc4)CC3)cc2)c1=O", "note": "[Posaconazole]", "values": [{"measurement": "Time of kill (time taken to kill 2 logs)", "setting": "A. fumigatus conidia; final concn 4 mg/liter = 16× MIC", "value": 24, "unit": "h"}]}, {"compound": "N=C(N)NCCC[C@H](NC(=O)[C@H](CCCNC(=N)N)NC(=O)[C@H](CCCNC(=N)N)NC(=O)[C@H](CCCNC(=N)N)NC(=O)[C@H](CCCNC(=N)N)NC(=O)[C@H](CCCNC(=N)N)NC(=O)[C@@H](N)CCCNC(=N)N)C(=O)O", "note": "[RRRRRRR]", "values": [{"measurement": "MIC", "setting": "C. albicans NCTC 3179", "value": ">2,048 μM"}]}, {"compound": "N=C(N)NCCC[C@H](NC(=O)[C@H](CCCNC(=N)N)NC(=O)[C@H](CCCNC(=N)N)NC(=O)[C@H](CCCNC(=N)N)NC(=O)[C@@H](N)CCCNC(=N)N)C(=O)O", "note": "[RRRRR] (H-RRRRR-OH)", "values": [{"measurement": "MIC", "setting": "C. albicans NCTC 3179", "value": ">2,048 μM"}]}, {"compound": "N=C(N)NCCC[C@H](NC(=O)[C@H](CCCNC(=N)N)NC(=O)[C@@H](N)CCCNC(=N)N)C(=O)O", "note": "[RRR] (H-Arg-Arg-Arg-OH)", "values": [{"measurement": "MIC", "setting": "C. albicans NCTC 3179", "value": ">2,048 μM"}]}, {"compound": "C[C@@H](c1ncncc1F)[C@](O)(Cn1cncn1)c1ccc(F)cc1F", "note": "[Voriconazole]", "values": [{"measurement": "Time of kill (time taken to kill 2 logs)", "setting": "A. fumigatus conidia; final concn 2–8 mg/liter = 16× MIC", "value": 48, "unit": "h"}]}, {"compound": "human β-defensin 2 (GIGDPVTCLKSGAICHPVFCPRRYKQIGTCGLPGTKCCKKP; UniProt O15263 24-64, looked up) [endogenous human host defense peptide used as comparator in TEM]", "values": [{"measurement": "MIC (1× MIC, final concentration used for TEM)", "setting": "C. albicans AM2003-0182 [2]", "value": 25, "unit": "µg/mL"}, {"measurement": "Cell destruction (lysis) seen by TEM", "setting": "C. albicans AM2003-0182 [3]", "value": "not observed"}]}]}
